Assays:
Assay in all cases: normalised response (% of control), CellTiter-Glo; higher = more viable cells (100 = DMSO, 0 = benzethonium chloride kill control)
Details in all cases: incubation time: 72 h
DU-4475 = tested on: DU-4475
Summary of the method: (§1)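 For each plate, 0.1 % DMSO was set to 100 and a positive kill control to 0. Breast cancer cell lines (20 µl suspension) were seeded into 384-well plates already holding compound at 5 concentrations in 10-fold steps over a 10,000-fold range chosen per compound, and incubated for 72 h. CellTox Green fluorescence at 485/520 nm was read before CellTiter-Glo luminescence, which followed 10 min at room temperature. Each value is the normalised signal at one concentration.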

BT-549 = tested on: BT-549
Summary of the method: as §1

BT-474 = tested on: BT-474
Summary of the method: as §1

HCC1937 = tested on: HCC1937
Summary of the method: as §1

CAL-148 = tested on: CAL-148
Summary of the method: as §1

HCC1599 = tested on: HCC1599
Summary of the method: as §1

Hs578T = tested on: Hs578T
Summary of the method: as §1

MDA-MB-436 = tested on: MDA-MB-436
Summary of the method: as §1

MDA-MB-468 = tested on: MDA-MB-468
Summary of the method: as §1

HDQ-P1 = tested on: HDQ-P1
Summary of the method: as §1

Structure (SMILES)	normalised response (DU-4475)	normalised response (BT-549)	normalised response (BT-474)	normalised response (HCC1937)	normalised response (CAL-148)	normalised response (HCC1599)	normalised response (Hs578T)	normalised response (MDA-MB-436)	normalised response (MDA-MB-468)	normalised response (HDQ-P1)
COc1cccc2c1C(=O)c1c(O)c3c(c(O)c1C2=O)C[C@@](O)(C(=O)CO)C[C@@H]3O[C@H]1C[C@H](N)[C@H](O)[C@H](C)O1 [Doxorubicin] (100 nM)	80.7%	78.3%	82.9%	107%	82.7%	115%	98.7%	85.4%	71.4%	98.7%
Cc1ccc(F)c(NC(=O)Nc2ccc(-c3cccc4[nH]nc(N)c34)cc2)c1 [Linifanib] (100 nM)	98.7%	103%	106%	102%	109%	104%	98%	112%	104%	103%
S=c1[nH]cnc2nc[nH]c12 [Mercaptopurine] (1000 nM)	79.7%	103%	75.6%	59.4%	85%	80.5%	71.8%	88.7%	91.8%	47.7%
Clc1ccc(C(c2ccccc2Cl)C(Cl)Cl)cc1 (stereo not given) [Mitotane] (1000 nM)	95.3%	100%	92%	99.6%	95.7%	121%	104%	98.2%	98.7%	101%
COc1cccc2cc(-c3nc([C@H]4CC[C@H](C(=O)O)CC4)n4ncnc(N)c34)[nH]c12 [OSI-027] (1000 nM)	89.3%	74.6%	79.6%	81.2%	93.1%	118%	96.6%	80.2%	84.2%	66.1%
OC[C@H]1O[C@@H](n2cnc3c2N=CNC[C@H]3O)C[C@@H]1O [Pentostatin] (1000 nM)	98%	95.7%	93.9%	100%	94.4%	103%	105%	102%	99.4%	94.1%
N#CC[C@H](C1CCCC1)n1cc(-c2ncnc3[nH]ccc23)cn1 [Ruxolitinib] (1000 nM)	99.6%	96.3%	90.2%	103%	99.9%	100%	105%	101%	90.8%	98.2%
C=CC[C@@H]1/C=C(\C)C[C@H](C)C[C@H](OC)[C@H]2O[C@@](O)(C(=O)C(=O)N3CCCC[C@H]3C(=O)O[C@H](/C(C)=C/[C@@H]3CC[C@@H](O)[C@H](OC)C3)[C@H](C)[C@@H](O)CC1=O)[C@H](C)C[C@@H]2OC [Tacrolimus] (1000 nM)	100%	102%	97.4%	101%	96.6%	121%	96%	99.7%	105%	105%
C=CCNC1=C2C[C@@H](C)C[C@H](OC)[C@H](O)[C@@H](C)/C=C(\C)[C@H](OC(N)=O)[C@@H](OC)/C=C\C=C(/C)C(=O)NC(=CC1=O)C2=O [Tanespimycin] (1000 nM)	0.04%	33.4%	21.1%	29%	24.1%	57.8%	38.2%	43.3%	42.3%	22.8%
C[C@]1(c2nc3c(C(N)=O)cccc3[nH]2)CCCN1 [Veliparib] (1000 nM)	98.6%	103%	93.8%	101%	96.2%	104%	105%	95.4%	104%	102%
CC[C@]1(O)C[C@@H]2CN(CCc3c([nH]c4ccccc34)[C@@](C(=O)OC)(c3cc4c(cc3OC)N(C)[C@H]3[C@@](O)(C(=O)OC)[C@H](OC(C)=O)[C@]5(CC)C=CCN6CC[C@]43[C@@H]65)C2)C1 [Vinblastine] (100 nM)	61.9%	35.6%	52.3%	67.7%	42%	26.6%	22.4%	25.3%	34.7%	71.9%
CS(=O)(=O)c1ccc(C(=O)Nc2ccc(Cl)c(-c3ccccn3)c2)c(Cl)c1 [Vismodegib] (1000 nM)	98.9%	101%	90.3%	95.5%	98.8%	118%	101%	93.3%	94.9%	98.4%

— the supplement of paper PMC4862054
